This test addresses High affinity choline transporter 1 (Homo sapiens) (UniProt Q9GZV3). As to the kind of experiment: CHT choline uptake inhibitors, dose response, cell-based, HEK-293 hCHT, [3H]-choline uptake (AID 652177). Conditions: 15 min, IC50 at 10 uM choline.

SMILES strings stand for the structures.

Chain of High affinity choline transporter 1 (Homo sapiens) (Q9GZV3 whole entry, looked up): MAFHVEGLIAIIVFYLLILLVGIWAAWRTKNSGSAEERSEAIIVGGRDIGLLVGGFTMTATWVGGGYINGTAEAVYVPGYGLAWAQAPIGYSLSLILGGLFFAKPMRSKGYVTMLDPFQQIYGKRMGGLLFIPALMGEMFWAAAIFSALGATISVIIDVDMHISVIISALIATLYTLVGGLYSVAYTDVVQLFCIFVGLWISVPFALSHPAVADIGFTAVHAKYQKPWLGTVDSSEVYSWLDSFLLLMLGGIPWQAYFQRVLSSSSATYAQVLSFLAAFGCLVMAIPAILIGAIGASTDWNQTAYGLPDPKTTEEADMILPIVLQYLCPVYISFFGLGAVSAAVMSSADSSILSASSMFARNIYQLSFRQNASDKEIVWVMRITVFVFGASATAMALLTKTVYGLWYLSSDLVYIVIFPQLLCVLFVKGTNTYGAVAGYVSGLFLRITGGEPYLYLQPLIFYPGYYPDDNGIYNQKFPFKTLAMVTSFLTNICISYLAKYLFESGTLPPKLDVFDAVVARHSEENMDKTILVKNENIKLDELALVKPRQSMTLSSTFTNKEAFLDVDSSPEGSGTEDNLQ

As for `CCc1cc(CNC(=O)c2ccc(OC)c(OCCN3CCCCC3)c2)on1`, the half-maximal inhibitory concentration (IC50) (commonly the concentration that gives 50% inhibition) was 2210 nM.
